These results are taken from patent EP4603105A1, “PHARMACEUTICAL COMPOSITION CONTAINING CYCLIC COMPOUND HAVING SELECTIVE KRAS INHIBITORY EFFECT AGAINST HRAS AND NRAS” (CHUGAI SEIYAKU KABUSHIKI KAISHA, priority 2022, dated 2024).

Assay [1] concerns human lung cancer strain NCI-H441. The experiment in a line: NCI-H441 cell proliferation inhibitory activity (CellTiter-Glo, 4 days). The class given is cell-based. The following applies: 50% proliferation inhibitory concentration, four days, read-out: NCl-H441 IC50. Here is the method:
A test compound was dispensed into a U-bottom 384-well plate as 40 nL serially diluted dimethyl sulfoxide solutions using a liquid handler Echo (LABCYTE). […] This cell suspension was dispensed in an amount of 40 µL per well into a plate containing the test compound, and cultured at 37°C in a 5% carbon dioxide gas incubator. Four days later, 20 µL of CellTiter-Glo (registered trademark) (Promega) was added to each well and […] was measured. […]
In general terms: Cellular ATP, detected with luciferase, serves as a proxy for viable cell number.

The target of assay [2] is GDP-bound NRAS wild-type protein (Homo sapiens, UniProt P01111). The experiment in a line: Binding to NRAS by surface plasmon resonance (SPR), KD and KD ratio to KRAS. The following applies: ratio of KD with respect to GDP-bound NRAS wild-type protein to KD with respect to KRAS. Summed up:
(§1)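 GDP-bound biotin-Avi RAS captured at ~100–300 RU, 30°C, pH 7.4 HBS containing 10 µM GDP, 10 mM MgCl2, 1 mM DTT, 0.01% Tween 20 and 4% DMSO. KD by 1:1 fitting.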

The target in the next assay is HRAS wild-type protein (Homo sapiens, UniProt P01112). As to the kind of experiment: Binding to HRAS by surface plasmon resonance (SPR), KD and KD ratio to KRAS. The note with it: ratio of KD with respect to HRAS wild-type protein to KD with respect to KRAS. A digest of the protocol:
as §1
For orientation: Surface plasmon resonance follows binding to a sensor surface in real time, without labels.

The target of assay [3] is GDP-bound KRAS wild-type protein (Homo sapiens, UniProt P01116). The experiment in a line: Binding to KRAS by surface plasmon resonance (SPR), dissociation constant KD. The following applies: Single Cycle Kinetics, 1:1 binding model. A digest of the protocol: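 Compound binding is evaluated by SPR single-cycle kinetics, with concentrations added intermittently from low to high for 75 s each. Target surfaces carry GDP-loaded biotinylated Avi-RAS at about 100–300 RU, regenerated after each cycle; temperature 30°C. A 1:1 binding model gives KD.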
GDP-bound KRAS wild-type protein, sequence (P01116 1-188 isoform P01116-2): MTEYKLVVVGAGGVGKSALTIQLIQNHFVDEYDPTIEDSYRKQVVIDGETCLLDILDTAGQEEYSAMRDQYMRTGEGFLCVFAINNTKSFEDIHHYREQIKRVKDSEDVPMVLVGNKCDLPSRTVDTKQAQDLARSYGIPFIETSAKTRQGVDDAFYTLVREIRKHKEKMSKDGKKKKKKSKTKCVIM

GDP-bound NRAS wild-type protein, sequence (P01111 whole entry): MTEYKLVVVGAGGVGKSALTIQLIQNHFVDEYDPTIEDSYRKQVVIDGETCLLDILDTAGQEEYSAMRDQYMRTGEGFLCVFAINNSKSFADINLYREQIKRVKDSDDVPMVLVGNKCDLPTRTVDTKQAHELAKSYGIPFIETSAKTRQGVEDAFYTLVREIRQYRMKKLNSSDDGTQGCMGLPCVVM
HRAS wild-type protein, sequence (P01112 whole entry): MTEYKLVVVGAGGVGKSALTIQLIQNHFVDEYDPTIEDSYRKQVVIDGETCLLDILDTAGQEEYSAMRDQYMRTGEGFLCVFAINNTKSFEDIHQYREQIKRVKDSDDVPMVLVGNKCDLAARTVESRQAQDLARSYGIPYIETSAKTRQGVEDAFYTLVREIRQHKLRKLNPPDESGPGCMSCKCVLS

What is called IC50 is the midpoint of a concentration-inhibition curve. As usually defined, the Kd is the free concentration of one partner at which half of the binding sites on the other are occupied at equilibrium, for simple one-to-one binding. Read a high Kd as weaker binding. As to `CC[C@H](C)[C@@H]1NC(=O)[C@H](CC)N(C)C(=O)C[C@@H](C(=O)N(C)C)N(C)C(=O)[C@H](C2CCCC2)N(C)C(=O)C2(CCC2)NC(=O)[C@@H]2CCCN2C(=O)[C@H](CCc2cc(F)c(C(F)(F)F)c(F)c2)NC(=O)CN(C)C(=O)[C@H](Cc2ccc(C(F)(F)F)cc2)N2CC/C=C\C[C@@H](C2=O)N(C)C(=O)CN(C)C1=O` [PP1135], in assay [1], the concentration for half-maximal inhibition (IC50) is 43.9 nM. For the same compound, the “NRAS /KRAS” value in assay [2] was “A (a compound having 10 or more and less than 20 is denoted as A)”. The “HRAS /KRAS” value on HRAS wild-type protein was “A (a compound having 10 or more and less than 20 is denoted as A)”. This compound showed a dissociation constant Kd in assay [3] of 0.094 nM.
Turning to `CC[C@H](C)[C@@H]1NC(=O)[C@H](CC)N(C)C(=O)C[C@@H](C(=O)N(C)C)N(C)C(=O)[C@H](C2CCCC2)N(C)C(=O)C2(CCC2)NC(=O)[C@@H]2CCN2C(=O)[C@H](CCc2cc(F)c(C(F)(F)F)c(F)c2)NC(=O)CN(C)C(=O)[C@H](Cc2ccc(C(F)(F)F)cc2)N2CC/C=C\C[C@@H](C2=O)N(C)C(=O)CN(C)C1=O` [PP1139], in assay [1], the IC50 was 297 nM. Moreover, in assay [2], the “NRAS /KRAS” value is “A (a compound having 10 or more and less than 20 is denoted as A)”. Further, the “HRAS /KRAS” value at HRAS wild-type protein was “A (a compound having 10 or more and less than 20 is denoted as A)”. In assay [3], the Kd came to 0.43 nM.
On to `CC[C@H](C)[C@@H]1NC(=O)[C@H](CC)N(C)C(=O)C[C@@H](C(=O)N(C)C)N(C)C(=O)[C@H](C2CCCC2)N(C)C(=O)C2(CCC2)NC(=O)[C@H](C)NC(=O)[C@H](CCc2cc(F)c(C(F)(F)F)c(F)c2)NC(=O)CN(C)C(=O)[C@H](Cc2ccc(C(F)(F)F)cc2)N2CC/C=C\C[C@@H](C2=O)N(C)C(=O)CN(C)C1=O` [PP1140], for which the IC50 in assay [1] turned out to be 1780 nM. In addition, the “NRAS /KRAS” value in assay [2] was “A (a compound having 10 or more and less than 20 is denoted as A)”. Further, on HRAS wild-type protein, the “HRAS /KRAS” value is “A (a compound having 10 or more and less than 20 is denoted as A)”. In addition, the affinity in assay [3], expressed as Kd, was 0.15 nM.
Take `CC[C@H](C)[C@@H]1NC(=O)[C@H](CC)N(C)C(=O)C[C@@H](C(=O)N(C)C)N(C)C(=O)[C@H](C2CCCC2)N(C)C(=O)C2(CCC2)NC(=O)CN(CC)C(=O)[C@H](CCc2cc(F)c(C(F)(F)F)c(F)c2)NC(=O)CN(C)C(=O)[C@H](Cc2ccc(C(F)(F)F)cc2)N2CC/C=C\C[C@@H](C2=O)N(C)C(=O)CN(C)C1=O` [PP1143]: the concentration for half-maximal inhibition (IC50) in assay [1] came out at 75.3 nM. Further, the “NRAS /KRAS” value in assay [2] is “A (a compound having 10 or more and less than 20 is denoted as A)”. Also, on HRAS wild-type protein, the “HRAS /KRAS” value is “A (a compound having 10 or more and less than 20 is denoted as A)”. In addition, in assay [3], binding was put at a Kd of 0.17 nM.
Regarding `CC[C@H](C)[C@@H]1NC(=O)[C@H](CC)N(C)C(=O)C[C@@H](C(=O)N(C)C)N(C)C(=O)[C@H](C2CCCC2)N(C)C(=O)C2(CCC2)NC(=O)[C@H](C)N(C)C(=O)[C@H](CCc2cc(F)c(C(F)(F)F)c(F)c2)NC(=O)CN(C)C(=O)[C@H](Cc2ccc(C(F)(F)F)cc2)N2CC/C=C\C[C@@H](C2=O)N(C)C(=O)CN(C)C1=O` [PP1146], the IC50 in assay [1] came to 202 nM. Further, the “NRAS /KRAS” value in assay [2] was “A (a compound having 10 or more and less than 20 is denoted as A)”. At HRAS wild-type protein, the “HRAS /KRAS” value was “B (a compound having 3 or more and less than 10 is denoted as B)”. Further, in assay [3], the dissociation constant (Kd) came out at 0.32 nM.
As to `CCCC[C@H]1C(=O)NC2(CCC2)C(=O)N(C)[C@@H](C2CCCC2)C(=O)N(C)[C@H](C(=O)N(C)C)CC(=O)N(C)[C@@H](CC)C(=O)N[C@@H]([C@@H](C)CC)C(=O)N(C)CC(=O)N(C)[C@H]2C/C=C\CCN(C2=O)[C@@H](Cc2ccc(C(F)(F)F)cc2)C(=O)N(C)CC(=O)N[C@@H](CCc2cc(F)c(C(F)(F)F)c(F)c2)C(=O)N1C` [PP1150], the IC50 in assay [1] is 42.7 nM. Further, the “NRAS /KRAS” value in assay [2] is “AA (a compound having 20 or more is denoted as AA)”. Further, the “HRAS /KRAS” value at HRAS wild-type protein was “A (a compound having 10 or more and less than 20 is denoted as A)”. This compound showed a dissociation constant (Kd) in assay [3] of 0.17 nM.
Turning to `CCO[C@@H]1C[C@H]2C(=O)NC3(CCC3)C(=O)N(C)[C@@H](C3CCCC3)C(=O)N(C)[C@H](C(=O)N(C)C)CC(=O)N(C)[C@@H](Cc3ccccc3C#N)C(=O)N[C@@H]([C@@H](C)CC)C(=O)N(C)CC(=O)N(C)[C@H]3CCCCCN(C3=O)[C@@H](Cc3ccc(F)cc3)C(=O)N(C)CC(=O)N[C@@H](CCc3cc(F)c(C(F)(F)F)c(F)c3)C(=O)N2C1` [PP1155], the IC50 in assay [1] was found to be 73.1 nM. The “NRAS /KRAS” value in assay [2] is “B (a compound having 3 or more and less than 10 is denoted as B)”. Also, the “HRAS /KRAS” value at HRAS wild-type protein is “B (a compound having 3 or more and less than 10 is denoted as B)”. This compound also returned a dissociation constant Kd in assay [3] of 0.15 nM.
With `CCO[C@@H]1C[C@H]2C(=O)NC3(CCC3)C(=O)N(C)[C@@H](C3CCCC3)C(=O)N(C)[C@H](C(=O)N(C)C)CC(=O)N(C)[C@@H](Cc3cccc(C#N)c3)C(=O)N[C@@H]([C@@H](C)CC)C(=O)N(C)CC(=O)N(C)[C@H]3CCCCCN(C3=O)[C@@H](Cc3ccc(F)cc3)C(=O)N(C)CC(=O)N[C@@H](CCc3cc(F)c(C(F)(F)F)c(F)c3)C(=O)N2C1` [PP1156], in assay [1], the IC50 was 33.7 nM. The “NRAS /KRAS” value in assay [2] was “B (a compound having 3 or more and less than 10 is denoted as B)”. The “HRAS /KRAS” value on HRAS wild-type protein is “B (a compound having 3 or more and less than 10 is denoted as B)”. The affinity in assay [3], expressed as Kd, was 0.063 nM.
As for `CCO[C@@H]1C[C@H]2C(=O)NC3(CCC3)C(=O)N(C)[C@@H](C3CCCC3)C(=O)N(C)[C@H](C(=O)N(C)C)CC(=O)N(C)[C@@H](Cc3ccc(C#N)cc3)C(=O)N[C@@H]([C@@H](C)CC)C(=O)N(C)CC(=O)N(C)[C@H]3CCCCCN(C3=O)[C@@H](Cc3ccc(F)cc3)C(=O)N(C)CC(=O)N[C@@H](CCc3cc(F)c(C(F)(F)F)c(F)c3)C(=O)N2C1` [PP1157], the IC50 in assay [1] was 30.3 nM. For the same compound, the “NRAS /KRAS” value in assay [2] was “B (a compound having 3 or more and less than 10 is denoted as B)”. The “HRAS /KRAS” value on HRAS wild-type protein was “B (a compound having 3 or more and less than 10 is denoted as B)”. This compound also returned a Kd in assay [3] of 0.061 nM.
As for `CCO[C@@H]1C[C@H]2C(=O)NC3(CCC3)C(=O)N(C)[C@@H](C3CCCC3)C(=O)N(C)[C@H](C(=O)N(C)C)CC(=O)N(C)[C@@H](Cc3ccc(Cl)c(Cl)c3)C(=O)N[C@@H]([C@@H](C)CC)C(=O)N(C)CC(=O)N(C)[C@H]3CCCCCN(C3=O)[C@@H](Cc3ccc(F)cc3)C(=O)N(C)CC(=O)N[C@@H](CCc3cc(F)c(C(F)(F)F)c(F)c3)C(=O)N2C1` [PP1158], the IC50 in assay [1] stood at 57.5 nM. In assay [2], the “NRAS /KRAS” value is “B (a compound having 3 or more and less than 10 is denoted as B)”. In addition, the “HRAS /KRAS” value at HRAS wild-type protein was “B (a compound having 3 or more and less than 10 is denoted as B)”. Further, the Kd in assay [3] was 0.18 nM.
For the compound `CCCO[C@@H]1C[C@H]2C(=O)NC3(CCC3)C(=O)N(C)[C@@H](C3CCCC3)C(=O)N(C)[C@H](C(=O)N3CCOCC3)CC(=O)N(C)[C@@H](CC(C)C)C(=O)N[C@@H]([C@@H](C)CC)C(=O)N(C)CC(=O)N(C)[C@H]3CCCCN(C3=O)[C@@H](Cc3ccc(C(F)(F)F)cc3)C(=O)N(C)CC(=O)N[C@@H](CCc3cc(F)c(C(F)(F)F)c(F)c3)C(=O)N2C1` [PP1159], the IC50 in assay [1] is 13 nM. For the same compound, the “NRAS /KRAS” value in assay [2] is “C (A compound having a KD ratio of 0.1 or more and less than 3 is denoted as C)”. The “HRAS /KRAS” value at HRAS wild-type protein was “B (a compound having 3 or more and less than 10 is denoted as B)”. Further, in assay [3], the dissociation constant Kd is 0.036 nM.
